{"source": "patent US12037583B2", "about": "“Compositions and methods for immunooncology” (Novartis AG, priority 2015, dated 2024)", "key": {"PDCD1": {"test_system": "PDCD1", "test": "NGS editing of PDCD1 by dgRNA in HEK cells stably expressing Cas9", "format": "cell-based, human", "conditions": "at least 3 experiments"}, "[1]": {"test_system": "potential off-target genomic sites", "test": "Off-target editing assessment by oligo insertion assay in Cas9-expressing HEK293 cells", "format": "cell-based, human", "conditions": "dual guide RNA, FIG. 63, 64", "source_text": "A total of 34 guideRNAs (dual guide RNAs comprising the indicated targeting domain, modified or unmodified, as indicated) targeting B2M (5), TRAC (9), TRBC2 (2), PDCD1 (8), FKBP1A (5), or CIITA (5) were screened in the Cas9-expressing HEK293 cells described above in Example 1, and the results are plotted in FIG. 63 and FIG. 64."}, "FKBP1A": {"test_system": "FKBP1A", "test": "S6 phosphorylation by flow cytometry with or without RAD001 after FKBP1A editing", "format": "cell-based, human", "conditions": "primary T cells; 2.5 nM RAD001 3 hours; FIG. 54", "procedure": "After thawing, isolated human T cells were activated with CD3/CD28 beads for 3 days at a bead to cell ratio of 3:1. Cells were then electroporated with RNP containing dual guide RNA molecules (as indicated, as described above in these examples), and Cas9 protein using the Neon instrument with the 100 ul tip kit. RNPs were prepared in the following manner. crRNA and trRNA (10 ul of each at 100 uM) were heated in separate tubes to 95 degrees C. for two minutes and then cooled for 5 minutes at room temperature. […]\nAfter electroporation, cells were then transferred into a 6-well plate with 2 ml of T cell media with beads at a 3:1 bead to cell ratio. […] The phosphorylation of S6 was detected by flow cytometry, and was used as an indication of immunosuppressing by RAD001. […] Cells were then washed twice with PBS and analyzed by flow cytometry on the Becton Dickenson LSR Fortessa using FloJo-V10 software.\nAfter electroporation cells were treated with 2.5 nM RAD001 (upper panel) or left untreated (lower panel) and the impact on mTOR pathway inhibition was evaluated by analyzing S6 phosphorylation (pS6) by flow cytometry. […] Positive staining for pS6 (shown in the gating trace) was determined by gating above the fluorescence level seen in a control stained with isotype antibody (not shown). Quantitation of S6 phosphorylation from the flow cytometry data is shown in the graph in the lower panel. […]"}, "CD3E": {"test_system": "CD3E", "test": "NGS editing and frameshift edit of CD3E by dgRNA in HEK-293(Cas9) cells", "format": "cell-based, human", "conditions": "dgRNA to CD3E in HEK-293(Cas9) cells", "excerpt": "Transfection of Cas9GFP-expressing HEK293 cells (HEK-293_Cas9GFP) was used for primary screening of target specific crRNAs. In this example, target specific crRNAs were designed and selected for primary screening using defined criteria including in silico off-target detection, e.g., as described herein. Selected crRNAs were chemically synthesized and delivered in a 96 well format. HEK-293-Cas9GFP cells were transfected with target crRNAs comprising a flagpole region of SEQ ID NO: 6607 in a 1:1 ratio with stock trRNA of SEQ ID NO: 6660. The transfection was mediated using lipofection technology according to manufacturer's protocol (DharmaFECT Duo, GE LifeSciences; or RNAiMax, LifeTechnologies). Transfected cells were lysed 24 h following lipofection and editing (e.g., cleavage) was detected within lysates with the T7E1 assay and/or next generation sequencing (NGS; below).\nPCR primers were first designed around the target site, and the genomic area of interest PCR amplified. Additional PCR was performed according to manufacturer's protocols (Illumina) to add the necessary chemistry for sequencing. The amplicons were then sequenced on an Illumina MiSeq instrument. The reads were then aligned to the human reference genome (e.g., hg38) after eliminating those having low quality scores. From the resulting files containing the reads mapped to the reference genome (BAM files), reads which overlap the target region of interest were selected and the number of wild type reads versus the number of reads which contain an insertion or deletion was calculated. The editing percentage was then defined as the total number of reads with insertions or deletions over the total number of reads, including wild type. To determine the pattern of insertions and/or deletions that resulted from the edit, the aligned reads with indels were selected and the number of a reads with a given indel were summed.\ndgRNA molecules comprising the indicated targeting domain were chemically synthesized, and editing assessed in HEK-293 cells by NGS as described in Example 1. […] Several gRNA molecules were able to edit more than 50% of the cells, including producing a frameshift mutation in more than 50% of the cells."}, "CD3 delta and CD3 gamma": {"test_system": "CD3 delta and CD3 gamma", "test": "Loss of surface CD3 by flow cytometry in primary human CD3+ T cells after CD3 delta / CD3 gamma RNP", "format": "cell-based", "conditions": "day 7 post-electroporation; anti-CD3 OKT3", "procedure": "Editing of CRISPR systems containing dgRNA molecules comprising targeting domains to sequences of CD3 delta and CD3 gamma were tested for editing in primary CD3+ T cells (gRNA/Cas9 RNP delivered by electroporation) according to the methods described herein. Surface expression of CD3 after editing was assayed by flow cytometry. Briefly, edited CD3+ cells were stained with antibodies against CD3 (OKT3, BioLegend) at day 7 post-electroporation. Expression of CD3 in live cells (identified using 7AAD exclusion) relative to the un-edited controls was used to determine frequency of RNP editing. The results are reported in FIG. 65 and FIG. 66, which include flow cytometry data showing the % editing in primary human CD3+ T cells as measured by loss of surface expression of CD3."}}, "data": [{"substance": "CR000902: dgRNA targeting domain to PDCD1 (guide GCCCACGACACCAACCACCA; targeting domain within dual guide RNA, chemistry not given here, further chemistry not given here; listed as Homo sapiens)", "values": [{"measurement": "HEK (NGS) % Editing Mean", "setting": "PDCD1", "result": 72, "unit": "%"}, {"measurement": "off-target editing in oligo insertion assay, in words", "setting": "[1]", "result": "no off-target editing was detected"}]}, {"substance": "CR002122: dgRNA targeting domain to FKBP1A (guide GUUCUUUUCACAGAUGAGUG; targeting domain within dual guide RNA, chemistry not given here, further chemistry not given here; listed as Homo sapiens)", "values": [{"measurement": "S6 phosphorylation under RAD001, in words", "setting": "FKBP1A", "result": "refractory to the inhibitory effects of the rapalog RAD001"}]}, {"substance": "CR002230 (guide AGGCCUCUCUACUUCCUGUG; targeting domain within dual guide RNA, chemistry not given here, further chemistry not given here; listed as Homo sapiens)", "values": [{"measurement": "Avg. % Edit (any indel)", "setting": "CD3E", "result": 20.64, "unit": "%"}, {"measurement": "Avg. Frameshift %", "setting": "CD3E", "result": 20.10, "unit": "%"}]}, {"substance": "CR002231 (guide GGCCUCUCUACUUCCUGUGU; targeting domain within dual guide RNA, chemistry not given here, further chemistry not given here; listed as Homo sapiens)", "values": [{"measurement": "Avg. % Edit (any indel)", "setting": "CD3E", "result": 13.83, "unit": "%"}, {"measurement": "Avg. Frameshift %", "setting": "CD3E", "result": 12.37, "unit": "%"}]}, {"substance": "CR005334: dgRNA targeting domain to CD3 delta or CD3 gamma (guide ACUUCGAUAAUGAACUUGCA; chemistry not given here; listed as Homo sapiens)", "values": [{"measurement": "% loss of CD3", "setting": "CD3 delta and CD3 gamma", "result": 98, "unit": "%"}]}]}
